“And” between values parts separate entries of the source, which are not always exact repeats. Equal entries are not always repeated.
What was measured:
TRPV3-A606V = TRPV3-A606V (Mus musculus, UniProt Q8K424, A606V)
Experimental: (§1) All channel constructs were expressed in Xenopus laevis oocytes and studied using the two-electrode voltage clamp technique (TEVC) following 1–4 days of incubation after cRNA injection. The animal care and experimental procedures were performed in accordance with the Guide for the Care and Use of Laboratory Animals and were approved by the Animal Care and Use Committee of the National Institute of Neurological Disorders and Stroke (Animal protocol number 1253–17). Oocytes were removed surgically and incubated with agitation for 1 hr in a solution containing (in mM) 82.5 NaCl, 2.5 KCl, 1 MgCl2, 5 HEPES, pH 7.6 (with NaOH), and collagenase (2 mg/ml; Worthington Biochemical, Lakewood, NJ). Defolliculated oocytes were injected with cRNA for each of the constructs and incubated at 17°C in a solution containing (in mM) 96 NaCl, 2 KCl, 1 MgCl2, 1.8 CaCl2, 5 HEPES, pH 7.6 (with NaOH), and gentamicin (50 μg/ml, GIBCO-BRL, Gaithersburg, MD). Oocyte membrane voltage was controlled using an OC-725C oocyte clamp (Warner Instruments, Hamden, CT). Data were filtered at 1–3 kHz and digitized at 20 kHz using pClamp software (Molecular Devices, Sunnyvale, CA) and a Digidata 1440A digitizer (Axon Instruments). Microelectrode resistances were 0.1–1 MΩ when filled with 3 M KCl. For recording TRP channel currents, the external recording solution contained (in mM) 100 KCl, 10 HEPES, pH 7.6 (with KOH). Experiments were performed at room temperature (~22°C), except as indicated otherwise. […] Current time courses were obtained by stepping membrane voltage every 2 s from a holding potential of 0 mV to either −60 or +60 mV for 100 ms, and plotting the mean steady-state current at the end of each voltage step as a function of total recording time. I-V relations were obtained similarly, but voltage was stepped every 2 s to a different value, in 10 mV increments and starting at −60 mV.

TRPV3-V587L = TRPV3-V587L (Mus musculus, UniProt Q8K424, V587L); details: -60 mV
Experimental: as §1

TRPV3-4PM = TRPV3-4PM (Mus musculus, UniProt Q8K424, F625L/F656I/F666Y/V587L)
Experimental: as §1

TRPV3-6M + 5PM = target: T1, TRPV3-6M + 5PM (Mus musculus, UniProt Q8K424, A560T/A606V/F522S/F625L/F656I/F666Y/H523E/L557M/Q580E/V587L/W521Y); experiment: Two-electrode voltage clamp, TRPV3-6M + 5PM in oocytes; format: cell-based
T1 construct: expressed in transfected cells; host or cells: Xenopus laevis oocytes
T1 sequence (Q8K424 1-791 W521Y/F522S/H523E/L557M/A560T/Q580E/V587L/A606V/F625L/F656I/F666Y): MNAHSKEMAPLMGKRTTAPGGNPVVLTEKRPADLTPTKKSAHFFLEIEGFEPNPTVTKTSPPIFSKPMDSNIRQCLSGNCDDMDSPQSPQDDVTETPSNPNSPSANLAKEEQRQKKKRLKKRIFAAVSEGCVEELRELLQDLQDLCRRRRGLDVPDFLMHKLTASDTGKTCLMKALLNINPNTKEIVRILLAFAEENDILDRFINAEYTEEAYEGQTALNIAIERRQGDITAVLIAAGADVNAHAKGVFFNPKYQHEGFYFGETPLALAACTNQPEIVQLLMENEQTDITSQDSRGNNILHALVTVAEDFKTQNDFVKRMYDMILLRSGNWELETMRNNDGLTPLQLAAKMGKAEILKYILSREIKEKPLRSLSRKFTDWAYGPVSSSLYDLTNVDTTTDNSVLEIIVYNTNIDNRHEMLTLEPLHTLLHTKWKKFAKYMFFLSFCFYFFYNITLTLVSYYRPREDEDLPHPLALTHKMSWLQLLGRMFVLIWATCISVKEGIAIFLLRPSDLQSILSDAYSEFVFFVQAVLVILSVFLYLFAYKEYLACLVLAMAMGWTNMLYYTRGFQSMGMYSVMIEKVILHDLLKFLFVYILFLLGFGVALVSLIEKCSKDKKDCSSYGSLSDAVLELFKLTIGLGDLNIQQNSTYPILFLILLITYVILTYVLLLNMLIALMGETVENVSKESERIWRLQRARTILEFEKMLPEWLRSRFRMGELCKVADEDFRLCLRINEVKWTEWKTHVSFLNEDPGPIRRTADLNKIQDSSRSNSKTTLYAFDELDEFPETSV
Experimental: as §1

TRPV3-A606V, sequence (Q8K424 whole entry A606V): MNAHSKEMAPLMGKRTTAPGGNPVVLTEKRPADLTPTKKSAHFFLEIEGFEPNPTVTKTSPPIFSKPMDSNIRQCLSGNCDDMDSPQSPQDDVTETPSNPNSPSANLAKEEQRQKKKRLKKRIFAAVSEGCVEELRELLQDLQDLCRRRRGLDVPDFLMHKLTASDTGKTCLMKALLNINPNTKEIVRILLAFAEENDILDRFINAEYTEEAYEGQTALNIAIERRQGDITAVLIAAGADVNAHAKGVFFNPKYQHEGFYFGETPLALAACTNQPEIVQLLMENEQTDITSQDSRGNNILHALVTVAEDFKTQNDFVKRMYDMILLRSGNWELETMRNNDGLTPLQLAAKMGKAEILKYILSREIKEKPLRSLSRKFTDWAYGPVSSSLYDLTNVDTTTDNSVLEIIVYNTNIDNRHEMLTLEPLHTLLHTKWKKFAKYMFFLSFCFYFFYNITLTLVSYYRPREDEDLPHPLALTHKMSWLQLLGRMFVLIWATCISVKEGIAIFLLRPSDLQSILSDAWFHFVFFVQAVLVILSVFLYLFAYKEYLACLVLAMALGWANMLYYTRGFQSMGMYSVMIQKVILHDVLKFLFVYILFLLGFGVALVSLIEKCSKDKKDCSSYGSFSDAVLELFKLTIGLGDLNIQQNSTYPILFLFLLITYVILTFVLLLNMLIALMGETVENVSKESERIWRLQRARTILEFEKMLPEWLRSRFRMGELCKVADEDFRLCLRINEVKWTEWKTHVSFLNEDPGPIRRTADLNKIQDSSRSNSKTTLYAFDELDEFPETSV
TRPV3-4PM, sequence (Q8K424 whole entry V587L/F625L/F656I/F666Y): as the sequence (Q8K424 whole entry A606V) above, with V587L, V606A, F625L, F656I, F666Y counted along it
TRPV3-V587L, sequence (Q8K424 whole entry V587L): as the sequence (Q8K424 whole entry A606V) above, with V587L, V606A counted along it

## NCCOB(c1ccccc1)c1ccccc1 [2-APB, 2-aminoethoxydiphenyl borate]
TRPV3-A606V; -60 mV
  s (slope) of Hill fit, 2-APB concentration-response: 2.72
TRPV3-A606V; read-out: apparent affinity (EC50) for activation by 2-APB, -60 mV, room temperature, Hill fit
  EC50: 132 ± 7 µM
TRPV3-A606V; relative to WT TRPV3
  increase in the apparent affinity for 2-APB: ~ 3.5 fold and 3.5 fold
TRPV3-V587L
  s (slope) of Hill fit, 2-APB concentration-response: 2.28
TRPV3-V587L; read-out: apparent affinity (EC50) for activation by 2-APB, room temperature, Hill fit
  EC50: 443 ± 13 µM
TRPV3-4PM; -60 mV
  s (slope) of Hill fit, 2-APB concentration-response: 1.84
TRPV3-4PM; relative to WT TRPV3
  shift in the apparent affinity for 2-APB: ~ 2 fold and 2 fold

## C=C(C)[C@]12C[C@@H](C)[C@@]34O[C@](Cc5ccccc5)(O[C@@H]1[C@@H]3C=C(COC(=O)Cc1ccc(O)c(OC)c1)C[C@]1(O)C(=O)C(C)=C[C@@H]41)O2 [RTx, resiniferatoxin]
TRPV3-6M + 5PM
  dissociation of RTx: exceedingly slow
TRPV3-6M + 5PM; RTx 100 nM, 2-APB 3 mM, +60 mV
  response to RTx compared with maximal response to 2-APB: similar
